Test results taken from ChEMBL document CHEMBL1201862, “PubChem BioAssay data set” (2004).
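Results reflect a 48-hour exposure of cells in 96-well plates to compound at five concentrations. GI50 is the concentration that inhibits growth by half.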 Active and inactive are the calls of the source. Cut-off read from the data, not from the text of the source: active = GI50 up to about 1.1 µM and inactive = higher.

Key:
Experiment in all cases: DTP human tumour cell line panel, 48 h
LOX IMVI = tested on: LOX IMVI
HT-29 = tested on: HT-29
NCI/ADR-RES = tested on: NCI/ADR-RES
SK-MEL-2 = tested on: SK-MEL-2
MDA-MB-435 = tested on: MDA-MB-435
SW-620 = tested on: SW-620
NCI-H23 = tested on: NCI-H23
UACC-62 = tested on: UACC-62
U-251 = tested on: U-251
NCI-H460 = tested on: NCI-H460
OVCAR-4 = tested on: OVCAR-4
UO-31 = tested on: UO-31
MDA-MB-231 = tested on: MDA-MB-231
786-0 = tested on: 786-0
MDA-N = tested on: MDA-N
MCF7 = tested on: MCF7
SN12C = tested on: SN12C
SNB-19 = tested on: SNB-19
NCI-H226 = tested on: NCI-H226
SK-MEL-28 = tested on: SK-MEL-28
HOP-62 = tested on: HOP-62
HCT-15 = tested on: HCT-15
SR = tested on: SR
M14 = tested on: M14
TK-10 = tested on: TK-10
BT-549 = tested on: BT-549
HOP-92 = tested on: HOP-92
OVCAR-8 = tested on: OVCAR-8
A498 = tested on: A498
A549 = tested on: A549
RPMI-8226 = tested on: RPMI-8226
OVCAR-5 = tested on: OVCAR-5
EKVX = tested on: EKVX
NCI-H522 = tested on: NCI-H522
DU-145 = tested on: DU-145
Hs-578T = tested on: Hs-578T
SF-539 = tested on: SF-539
HCT-116 = tested on: HCT-116
KM12 = tested on: KM12
COLO 205 = tested on: COLO 205
RXF 393 = tested on: RXF 393
PC-3 = tested on: PC-3
IGROV-1 = tested on: IGROV-1
UACC-257 = tested on: UACC-257
CCRF-CEM = tested on: CCRF-CEM
SK-OV-3 = tested on: SK-OV-3
ACHN = tested on: ACHN
SF-295 = tested on: SF-295
Malme-3M = tested on: Malme-3M
K562 = tested on: K562
MOLT-4 = tested on: MOLT-4
SK-MEL-5 = tested on: SK-MEL-5
HL-60 = tested on: HL-60
SNB-75 = tested on: SNB-75
OVCAR-3 = tested on: OVCAR-3
CAKI-1 = tested on: CAKI-1
SF-268 = tested on: SF-268
HCC 2998 = tested on: HCC 2998

## C[C@]12CC[C@H]3[C@@H](CC=C4C[C@@H](O)CC[C@@]43C)[C@@H]1C/C(=C\c1cccnc1)[C@@H]2O
LOX IMVI
  GI50: 1.28 µM (inactive)
HT-29
  GI50: 43.8 µM (inactive)
NCI/ADR-RES
  GI50: 11.8 µM (inactive)
SK-MEL-2
  GI50: 30.8 µM (inactive)
MDA-MB-435
  GI50: > 100 µM (inactive)
SW-620
  GI50: 89.9 µM (inactive)
NCI-H23
  GI50: 13.1 µM (inactive)
UACC-62
  GI50: 7.96 µM (inactive)
U-251
  GI50: 6.27 µM (inactive)
NCI-H460
  GI50: 31.6 µM (inactive)
OVCAR-4
  GI50: 4.68 µM (inactive)
UO-31
  GI50: 55.5 µM (inactive)
MDA-MB-231
  GI50: 13.2 µM (inactive)
786-0
  GI50: 19 µM (inactive)
MDA-N
  GI50: > 100 µM (inactive)
MCF7
  GI50: 6.75 µM (inactive)
SN12C
  GI50: 9.44 µM (inactive)
SNB-19
  GI50: 16 µM (inactive)
NCI-H226
  GI50: 5.25 µM (inactive)
SK-MEL-28
  GI50: 32.1 µM (inactive)
HOP-62
  GI50: 4.67 µM (inactive)
HCT-15
  GI50: 38.1 µM
SR
  GI50: 1.57 µM (inactive)
M14
  GI50: > 100 µM (inactive)
TK-10
  GI50: 19.6 µM (inactive)
BT-549
  GI50: 13.5 µM (inactive)
HOP-92
  GI50: 11.9 µM (inactive)
OVCAR-8
  GI50: 6.89 µM (inactive)
A498
  GI50: 7.14 µM (inactive)
A549
  GI50: 7.83 µM (inactive)
RPMI-8226
  GI50: > 100 µM (inactive)
OVCAR-5
  GI50: 41.4 µM (inactive)
EKVX
  GI50: 3.97 µM (inactive)
NCI-H522
  GI50: 12.6 µM (inactive)
DU-145
  GI50: 13.5 µM (inactive)
Hs-578T
  GI50: 6.21 µM (inactive)
SF-539
  GI50: 14 µM (inactive)
HCT-116
  GI50: 25 µM (inactive)
KM12
  GI50: > 100 µM (inactive)
COLO 205
  GI50: > 100 µM (inactive)
RXF 393
  GI50: 15 µM (inactive)
PC-3
  GI50: 30.7 µM (inactive)
IGROV-1
  GI50: 24.7 µM (inactive)
UACC-257
  GI50: 39.2 µM (inactive)
CCRF-CEM
  GI50: 23.6 µM (inactive)
SK-OV-3
  GI50: 10.8 µM (inactive)
ACHN
  GI50: 5.82 µM (inactive)
SF-295
  GI50: 2.55 µM (inactive)
Malme-3M
  GI50: > 100 µM (inactive)

## O=C(O)c1ccc(Nc2nc3cc(C(F)(F)F)ccc3nc2C(=O)O)cc1
K562
  GI50: > 100 µM (inactive)
LOX IMVI
  GI50: > 100 µM (inactive)
HT-29
  GI50: > 100 µM (inactive)
NCI/ADR-RES
  GI50: > 100 µM (inactive)
MOLT-4
  GI50: > 100 µM (inactive)
SK-MEL-2
  GI50: > 100 µM (inactive)
MDA-MB-435
  GI50: > 100 µM (inactive)
SW-620
  GI50: > 100 µM (inactive)
SK-MEL-5
  GI50: > 100 µM (inactive)
NCI-H23
  GI50: > 100 µM (inactive)
U-251
  GI50: > 100 µM (inactive)
NCI-H460
  GI50: > 100 µM (inactive)
OVCAR-4
  GI50: > 100 µM (inactive)
UO-31
  GI50: > 100 µM (inactive)
MDA-MB-231
  GI50: > 100 µM (inactive)
786-0
  GI50: > 100 µM (inactive)
MDA-N
  GI50: > 100 µM (inactive)
MCF7
  GI50: > 100 µM (inactive)
SN12C
  GI50: > 100 µM (inactive)
SNB-19
  GI50: > 100 µM (inactive)
NCI-H226
  GI50: > 100 µM (inactive)
SK-MEL-28
  GI50: > 100 µM (inactive)
HOP-62
  GI50: > 100 µM (inactive)
HCT-15
  GI50: > 100 µM
SR
  GI50: > 100 µM (inactive)
HL-60
  GI50: > 100 µM (inactive)
BT-549
  GI50: > 100 µM (inactive)
OVCAR-8
  GI50: > 100 µM (inactive)
A498
  GI50: > 100 µM (inactive)
OVCAR-5
  GI50: > 100 µM (inactive)
EKVX
  GI50: > 100 µM (inactive)
NCI-H522
  GI50: > 100 µM (inactive)
DU-145
  GI50: > 100 µM (inactive)
SNB-75
  GI50: > 100 µM (inactive)
OVCAR-3
  GI50: > 100 µM (inactive)
Hs-578T
  GI50: > 100 µM (inactive)
CAKI-1
  GI50: > 100 µM (inactive)
HCT-116
  GI50: > 100 µM (inactive)
SF-268
  GI50: 93.3 µM (inactive)
KM12
  GI50: > 100 µM (inactive)
COLO 205
  GI50: > 100 µM (inactive)
RXF 393
  GI50: > 100 µM (inactive)
PC-3
  GI50: > 100 µM (inactive)
IGROV-1
  GI50: > 100 µM (inactive)
HCC 2998
  GI50: > 100 µM (inactive)
ACHN
  GI50: > 100 µM (inactive)
SF-295
  GI50: > 100 µM (inactive)
Malme-3M
  GI50: > 100 µM (inactive)

## O=C(O)CNC(=O)C(CSC(=O)OCC1c2ccccc2-c2ccccc21)NC(=O)CCC(NC(=O)OCC1c2ccccc2-c2ccccc21)C(=O)O (centres undefined)
K562
  GI50: 17.1 µM (inactive)
LOX IMVI
  GI50: 0.0259 µM (active)
NCI/ADR-RES
  GI50: 17.5 µM (inactive)
MOLT-4
  GI50: 20.1 µM (inactive)
SK-MEL-2
  GI50: > 100 µM (inactive)
MDA-MB-435
  GI50: 18.9 µM (inactive)
SW-620
  GI50: 19 µM (inactive)
SK-MEL-5
  GI50: 63.4 µM (inactive)
NCI-H23
  GI50: 27 µM (inactive)
NCI-H460
  GI50: 18.6 µM (inactive)
OVCAR-4
  GI50: 15 µM (inactive)
UO-31
  GI50: 18.7 µM (inactive)
MDA-MB-231
  GI50: 17.9 µM (inactive)
786-0
  GI50: 3.05 µM (inactive)
MDA-N
  GI50: 28.1 µM (inactive)
MCF7
  GI50: > 100 µM (inactive)
SN12C
  GI50: 16.5 µM (inactive)
SNB-19
  GI50: > 100 µM (inactive)
NCI-H226
  GI50: 38.8 µM (inactive)
SK-MEL-28
  GI50: > 100 µM (inactive)
HOP-62
  GI50: 14.2 µM (inactive)
HCT-15
  GI50: 20 µM
SR
  GI50: 3.49 µM (inactive)
M14
  GI50: > 100 µM (inactive)
HL-60
  GI50: 28.8 µM (inactive)
TK-10
  GI50: 22.2 µM (inactive)
BT-549
  GI50: > 100 µM (inactive)
HOP-92
  GI50: 21.7 µM (inactive)
OVCAR-8
  GI50: 16.4 µM (inactive)
A549
  GI50: 14.3 µM (inactive)
RPMI-8226
  GI50: 21.5 µM (inactive)
OVCAR-5
  GI50: > 100 µM (inactive)
EKVX
  GI50: 17.8 µM (inactive)
NCI-H522
  GI50: 1.57 µM (inactive)
DU-145
  GI50: 15.3 µM (inactive)
OVCAR-3
  GI50: > 100 µM (inactive)
Hs-578T
  GI50: 68.1 µM (inactive)
CAKI-1
  GI50: 4.57 µM (inactive)
SF-539
  GI50: 16.3 µM (inactive)
HCT-116
  GI50: 18 µM (inactive)
SF-268
  GI50: 17.5 µM (inactive)
COLO 205
  GI50: 16.5 µM (inactive)
RXF 393
  GI50: 18.7 µM (inactive)
PC-3
  GI50: 15.5 µM (inactive)
IGROV-1
  GI50: 13.1 µM (inactive)
UACC-257
  GI50: > 100 µM (inactive)
CCRF-CEM
  GI50: 20.2 µM (inactive)
SK-OV-3
  GI50: > 100 µM (inactive)
HCC 2998
  GI50: > 100 µM (inactive)
ACHN
  GI50: 18.4 µM (inactive)
SF-295
  GI50: 16.6 µM (inactive)
Malme-3M
  GI50: 20.7 µM (inactive)
